The source of these data is ChEMBL document CHEMBL3797077, “Design and synthesis of N-(4-aminopyridin-2-yl)amides as B-Raf(V600E) inhibitors” (Bioorg Med Chem Lett, 2016).

Structures are written as SMILES.

Assay [1] can be described thus: Cytotoxicity against human COLO205 cells harboring B-Raf V600E mutant assessed as growth inhibition after 72 hrs by MTT assay. The format is functional, cell-based. The following applies: COLO 205, 72 h. A general note: Tetrazolium assays rely on reduction of a dye to a coloured formazan, in cell work by metabolically active cells.
A short description of assay [2]: Cytotoxicity against human HCT116 cells harboring wild type B-Raf assessed as growth inhibition after 72 hrs by MTT assay. It counts as functional, cell-based. The following applies: HCT-116, 72 h.
The test system of assay [3] is HT-29. The experiment in a line: Cytotoxicity against human HT-29 cells harboring B-Raf V600E mutant assessed as growth inhibition after 72 hrs by MTT assay. It counts as functional, cell-based. The following applies: HT-29, 72 h.
The target of assay [4] is Serine/threonine-protein kinase B-raf (Homo sapiens, UniProt P15056). Nature of the assay: Inhibition of recombinant wild type full length human GST-tagged B-Raf expressed in baculovirus expression system using Z'-LYTE Ser/Thr3 peptide as substrate incubated for 1 hr by FRET-based Z'-LYTE assay.
For assay [5], the target named is Serine/threonine-protein kinase B-raf (Homo sapiens, UniProt P15056, V600E). Nature of the assay: Inhibition of recombinant human N-terminal GST-tagged B-Raf V600E mutant expressed in baculovirus expression system using Z'-LYTE Ser/Thr3 peptide as substrate incubated for 1 hr by FRET-based Z'-LYTE assay.
Assay [6] concerns HCT-116. The experiment in a line: Selectivity ratio of IC50 for human HCT116 cells harboring wild type B-Raf to IC50 for human HT-29 cells harboring B-Raf V600E mutant. The format is functional.
For assay [7], the system named is COLO 205. Nature of the assay: Selectivity ratio of IC50 for human HCT116 cells harboring wild type B-Raf to IC50 for human COLO205 cells harboring B-Raf V600E mutant. The format is functional.

Sequence of Serine/threonine-protein kinase B-raf (Homo sapiens, UniProt P15056, V600E) (P15056 2-766 V600E limits assumed): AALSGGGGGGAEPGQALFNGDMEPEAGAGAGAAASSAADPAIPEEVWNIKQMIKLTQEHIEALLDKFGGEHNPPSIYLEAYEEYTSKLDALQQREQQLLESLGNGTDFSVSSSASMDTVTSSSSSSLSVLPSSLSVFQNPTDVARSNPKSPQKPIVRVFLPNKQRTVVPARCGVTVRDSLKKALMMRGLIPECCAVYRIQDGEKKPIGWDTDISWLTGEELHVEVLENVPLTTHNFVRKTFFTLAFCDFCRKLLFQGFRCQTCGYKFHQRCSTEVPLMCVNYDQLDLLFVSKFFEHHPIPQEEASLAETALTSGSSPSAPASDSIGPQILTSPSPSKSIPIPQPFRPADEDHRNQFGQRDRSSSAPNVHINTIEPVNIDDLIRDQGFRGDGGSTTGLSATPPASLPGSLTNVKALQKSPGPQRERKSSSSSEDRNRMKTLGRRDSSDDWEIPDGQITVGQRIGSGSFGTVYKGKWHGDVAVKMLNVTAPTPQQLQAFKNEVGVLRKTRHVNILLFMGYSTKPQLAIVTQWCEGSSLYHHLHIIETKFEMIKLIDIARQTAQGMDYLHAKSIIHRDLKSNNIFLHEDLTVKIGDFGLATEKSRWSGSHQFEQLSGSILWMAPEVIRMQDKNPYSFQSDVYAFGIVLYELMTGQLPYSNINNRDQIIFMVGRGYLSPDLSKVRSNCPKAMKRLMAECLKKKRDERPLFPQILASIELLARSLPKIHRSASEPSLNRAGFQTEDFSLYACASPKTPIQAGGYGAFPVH
Sequence of Serine/threonine-protein kinase B-raf (Homo sapiens, UniProt P15056) (P15056 whole entry): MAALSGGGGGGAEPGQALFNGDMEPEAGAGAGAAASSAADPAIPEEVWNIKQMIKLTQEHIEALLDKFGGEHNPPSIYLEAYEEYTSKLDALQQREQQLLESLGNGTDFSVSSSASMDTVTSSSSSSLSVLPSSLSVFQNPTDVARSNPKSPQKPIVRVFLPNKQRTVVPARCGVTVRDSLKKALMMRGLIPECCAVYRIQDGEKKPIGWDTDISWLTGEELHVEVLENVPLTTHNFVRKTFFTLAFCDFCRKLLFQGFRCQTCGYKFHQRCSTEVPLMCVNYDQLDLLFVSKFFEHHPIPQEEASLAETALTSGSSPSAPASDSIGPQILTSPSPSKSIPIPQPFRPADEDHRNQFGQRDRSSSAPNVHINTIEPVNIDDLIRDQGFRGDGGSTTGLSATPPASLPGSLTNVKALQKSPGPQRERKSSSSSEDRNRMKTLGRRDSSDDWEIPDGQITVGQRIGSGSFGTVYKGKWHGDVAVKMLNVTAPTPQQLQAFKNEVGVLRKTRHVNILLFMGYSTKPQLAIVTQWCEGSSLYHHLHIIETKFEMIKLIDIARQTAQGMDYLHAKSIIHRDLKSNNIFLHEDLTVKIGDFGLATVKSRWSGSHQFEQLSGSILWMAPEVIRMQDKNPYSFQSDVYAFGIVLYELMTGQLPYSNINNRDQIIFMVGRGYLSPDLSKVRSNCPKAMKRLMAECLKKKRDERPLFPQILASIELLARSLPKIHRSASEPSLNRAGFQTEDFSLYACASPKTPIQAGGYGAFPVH

On to `N#Cc1c(Oc2ccc(F)c(NC(=O)Cc3cccc(C(F)(F)F)c3)c2)ccc2nc(NC(=O)C3CC3)sc12`, for which the IC50 came out at 25 nM in assay [1], 362 nM in assay [2], 33 nM in assay [3] and 77 nM in assay [4].

Consider `CCC(=O)Nc1cc(Nc2cccc(NC(=O)c3cccc(C4CC4)c3)c2)ccn1`, for which the IC50 in assay [5] worked out at 125 nM.

In the case of `O=C(Nc1cccc(Nc2ccnc(NC(=O)C3CCCCC3)c2)c1)c1cccc(C2CC2)c1`, the IC50 in assay [5] was found to be 563 nM.

Take `CC(C)(C)c1cccc(C(=O)Nc2cccc(Nc3ccnc(NC(=O)C4CC4)c3)c2)c1`: the IC50 in assay [5] was 20 nM; in assay [1], 787 nM; in assay [2] it was 1380 nM; in assay [3] it was 991 nM; in assay [4] it was 240 nM.

In the case of `O=C(Nc1cccc(Nc2ccnc(NC(=O)C3CC3)c2)c1)c1cccc(Cl)c1`, the IC50 in assay [5] stood at 785 nM.

As to `O=C(Nc1cccc(Nc2ccnc(NC(=O)C3CC3)c2)c1)c1cccc([N+](=O)[O-])c1`, the IC50 in assay [5] came out at 1510 nM.

As for `CC(C)(C#N)c1cccc(C(=O)Nc2cccc(Nc3ccnc(NC(=O)C4CC4)c3)c2)c1`, the 50% inhibitory concentration (IC50) in assay [5] is 38 nM; in assay [1], 136 nM; in assay [2] it was 1090 nM; in assay [3], 94 nM; in assay [4], 476 nM. For the same compound, the “Ratio IC50” value in assay [6] and in assay [7] was 12 each time.

As for `O=C(Nc1cccc(Nc2ccnc(NC(=O)C3CC3)c2)c1)c1ccc(C(F)(F)F)cc1`, in assay [5], the IC50 was more than 10000 nM.

As to `O=C(Nc1cccc(Nc2ccnc(NC(=O)C3CC3)c2)c1)c1cccc(C2CC2)c1`, the IC50 in assay [5] is 35 nM; in assay [1], 111 nM; in assay [2], 221 nM; in assay [3], 92 nM; in assay [4], 453 nM.

For `CCc1cccc(C(=O)Nc2cccc(Nc3ccnc(NC(=O)C4CC4)c3)c2)c1`, the IC50 in assay [5] amounted to 110 nM.

In the case of `O=C(Nc1cccc(Nc2ccnc(NC(=O)C3CCC3)c2)c1)c1cccc(C2CC2)c1`, the IC50 in assay [5] was found to be 182 nM.

As to `N#Cc1cccc(C(=O)Nc2cccc(Nc3ccnc(NC(=O)C4CC4)c3)c2)c1`, the IC50 in assay [5] is 3530 nM.

Consider `O=C(Nc1cccc(Nc2ccnc(NC(=O)C3CC3)c2)c1)c1cccc(C(F)(F)F)c1`, for which, in assay [5], the IC50 came out at 141 nM.

As for `O=C(Nc1cccc(Nc2ccnc(NC(=O)C3CC3)c2)c1)c1ccccc1C(F)(F)F`, the IC50 in assay [5] is more than 10000 nM.

In the case of `CC(C)(C)C(=O)Nc1cc(Nc2cccc(NC(=O)c3cccc(C4CC4)c3)c2)ccn1`, in assay [5], the IC50 turned out to be 1030 nM.

On to `CC(=O)Nc1cc(Nc2cccc(NC(=O)c3cccc(C4CC4)c3)c2)ccn1`, for which the IC50 stood at 50 nM in assay [5]; 131 nM in assay [1]; 367 nM in assay [2]; 236 nM in assay [3]; 1200 nM in assay [4].

Consider `CC(C)c1cccc(C(=O)Nc2cccc(Nc3ccnc(NC(=O)C4CC4)c3)c2)c1`, for which the IC50 came out at 13 nM in assay [5]; 444 nM in assay [1]; 1060 nM in assay [2]; 462 nM in assay [3]; 148 nM in assay [4].

Consider `N#CC1(c2cccc(C(=O)Nc3cccc(Nc4ccnc(NC(=O)C5CC5)c4)c3)c2)CC1`, for which the IC50 in assay [5] was found to be 79 nM; in assay [1], 725 nM; in assay [2] it was 1350 nM; in assay [3] it was 791 nM; in assay [4] it was 2030 nM.

For `CC(C)C(=O)Nc1cc(Nc2cccc(NC(=O)c3cccc(C4CC4)c3)c2)ccn1`, the IC50 in assay [5] turned out to be 420 nM.

On to `Cc1cccc(C(=O)Nc2cccc(Nc3ccnc(NC(=O)C4CC4)c3)c2)c1`, for which, in assay [5], the IC50 was determined as 1210 nM.

With `O=C(Nc1cccc(Nc2ccnc(NC(=O)C3CCCC3)c2)c1)c1cccc(C2CC2)c1`, in assay [5], the IC50 stood at 434 nM.

`CCCS(=O)(=O)Nc1ccc(F)c(C(=O)c2c[nH]c3ncc(-c4ccc(Cl)cc4)cc23)c1F` [VEMURAFENIB]: the results for the IC50 in assay [1], in assay [2] and in assay [3] were 44 nM, 14600 nM and 156 nM, respectively.

What is called IC50 is the concentration needed to halve the response being measured.
